Like-named read-outs stand apart in the source and are kept apart here.
How the values were obtained:
melanotic melanoma B16 = experiment: Melanotic Melanoma B16 test; type: in vivo, C57BC/6 mice
Procedure: The animals used are C57BC/6 mice, all of the same sex, weighing a minimum of 17 g. and all within a 3-g. weight range. There are normally 10 animals per test group. A one-gram portion of melanotic melanoma B16 tumor is homogenized in 10 ml. of cold balanced salt solution and a 0.5-ml. aliquot of the homogenate is implanted intraperitoneally into each of the test mice. The test compounds are administered intraperitoneally on days one through 9 (relative to tumor inoculation) at various doses. The animals are weighed and survivors are recorded on a regular basis for 60 days. The median survival time and the ratio of survival time for treated (T)/control (C) animals are calculated. […] The criterion for efficacy is T/C×100≥125%.

[1] = tested on: lymphocytic leukemia P388; experiment: Lymphocytic leukemia P388 test (intraperitoneal administration); type: in vivo, DBA/2 mice
Procedure: The animals used are DBA/2 mice all of one sex, weighing a minimum of 17 g. and all within a 3 gram weight range. There are 5 or 6 animals per test group. The tumor transplant is by intraperitoneal injection of 0.1 ml. of dilute ascitic fluid containing 10^6 cells of lymphocytic leukemia P388. The test compounds are administered intraperitoneally on days one, 5 and 9 (relative to tumor inoculation) at various doses. The animals are weighed and survivors are recorded on a regular basis for 30 days. The median survival time and the ratio of survival time for treated (T)/control (C) animals are calculated.

[2] = 25 mg./kg. i.p., days 1, 5 and 9
[3] = Mus musculus, P388, ip, 25 mg./kg. i.p., days 1, 5 and 9, efficacy ≥125%, read-out: T/C × 100
[4] = 50 mg./kg. i.p., days 1 through 9
[5] = Mus musculus, ip, 50 mg./kg. i.p., days 1 through 9, efficacy ≥125%, read-out: T/C × 100
[6] = 12 mg./kg. i.p., days 1, 5 and 9
[7] = 50 mg./kg. i.p., days 1, 5 and 9
[8] = 100 mg./kg. i.p., days 1, 5 and 9
[9] = 200 mg./kg. i.p., days 1, 5 and 9
[10] = Mus musculus, P388, ip, 12 mg./kg. i.p., days 1, 5 and 9, efficacy ≥125%, read-out: T/C × 100
[11] = Mus musculus, P388, ip, 50 mg./kg. i.p., days 1, 5 and 9, efficacy ≥125%, read-out: T/C × 100
[12] = Mus musculus, P388, ip, 100 mg./kg. i.p., days 1, 5 and 9, efficacy ≥125%, read-out: T/C × 100
[13] = Mus musculus, P388, ip, 200 mg./kg. i.p., days 1, 5 and 9, efficacy ≥125%, read-out: T/C × 100
[14] = 25 mg./kg. i.p., days 1 through 9
[15] = Mus musculus, ip, 25 mg./kg. i.p., days 1 through 9, efficacy ≥125%, read-out: T/C × 100
[16] = 12 mg./kg. i.p., days 1 through 9
[17] = Mus musculus, P388, ip, read-out: T/C × 100
[18] = Mus musculus, ip, 12 mg./kg. i.p., days 1 through 9, efficacy ≥125%, read-out: T/C × 100

## CNCCNc1ccc(NCCNC)c2c1C(=O)c1c(O)ccc(O)c1C2=O.Cl.Cl [1,4-Bis[2-(methylamino)ethylamino]-5,8-dihydroxyanthraquinone dihydrochloride]
Melanotic melanoma B16; 0.19 mg./kg. i.p., days 1 through 9
  Median Survival Time: 29.5 days
Melanotic melanoma B16; 0.39 mg./kg. i.p., days 1 through 9
  Median Survival Time: 25.0 days
Melanotic melanoma B16; 0.78 mg./kg. i.p., days 1 through 9
  Median Survival Time: 35.0 days
Melanotic melanoma B16; 1.5 mg./kg. i.p., days 1 through 9
  Median Survival Time: 33.0 days
Melanotic melanoma B16; 3.1 mg./kg. i.p., days 1 through 9
  Median Survival Time: 49.0 days
Melanotic melanoma B16; 6.2 mg./kg. i.p., days 1 through 9
  Median Survival Time: 26.5 days
Melanotic melanoma B16; 12.5 mg./kg. i.p., days 1 through 9
  Median Survival Time: 11.5 days
Melanotic melanoma B16; Mus musculus, ip, 0.19 mg./kg. i.p., days 1 through 9, efficacy ≥125%, read-out: T/C × 100
  response vs control in vivo at 0.19 mg/kg: 151%
Melanotic melanoma B16; Mus musculus, ip, 0.39 mg./kg. i.p., days 1 through 9, efficacy ≥125%, read-out: T/C × 100
  response vs control in vivo at 0.39 mg/kg: 128%
Melanotic melanoma B16; Mus musculus, ip, 0.78 mg./kg. i.p., days 1 through 9, efficacy ≥125%, read-out: T/C × 100
  response vs control in vivo at 0.78 mg/kg: 179%
Melanotic melanoma B16; Mus musculus, ip, 1.5 mg./kg. i.p., days 1 through 9, efficacy ≥125%, read-out: T/C × 100
  response vs control in vivo at 1.5 mg/kg: 169%
Melanotic melanoma B16; Mus musculus, ip, 3.1 mg./kg. i.p., days 1 through 9, efficacy ≥125%, read-out: T/C × 100
  response vs control in vivo at 3.1 mg/kg: 251%
Melanotic melanoma B16; Mus musculus, ip, 6.2 mg./kg. i.p., days 1 through 9, efficacy ≥125%, read-out: T/C × 100
  response vs control in vivo at 6.2 mg/kg: 136%
Melanotic melanoma B16; Mus musculus, ip, 12.5 mg./kg. i.p., days 1 through 9, efficacy ≥125%, read-out: T/C × 100
  response vs control in vivo at 12.5 mg/kg: 59%
[1]; 0.04 mg./kg. i.p., days 1, 5 and 9
  Median Survival Time: 17.0 days
[1]; 0.09 mg./kg. i.p., days 1, 5 and 9
  Median Survival Time: 18.0 days
[1]; 0.19 mg./kg. i.p., days 1, 5 and 9
  Median Survival Time: 18.5 days
[1]; 0.39 mg./kg. i.p., days 1, 5 and 9
  Median Survival Time: 19.5 days
[1]; 0.78 mg./kg. i.p., days 1, 5 and 9
  Median Survival Time: 18.5 days
[1]; 1.5 mg./kg. i.p., days 1, 5 and 9
  Median Survival Time: 22.5 days
[1]; 3.1 mg./kg. i.p., days 1, 5 and 9
  Median Survival Time: 22.0 days
[1]; 6.2 mg./kg. i.p., days 1, 5 and 9
  Median Survival Time: 20.0 days
[1]; 12.5 mg./kg. i.p., days 1, 5 and 9
  Median Survival Time: 16.0 days
[1]; [2]
  Median Survival Time: 9.0 days
[1]; Mus musculus, P388, ip, 0.19 mg./kg. i.p., days 1, 5 and 9, efficacy ≥125%, read-out: T/C × 100
  response vs control in vivo at 0.19 mg/kg: 176%
[1]; Mus musculus, P388, ip, 0.04 mg./kg. i.p., days 1, 5 and 9, efficacy ≥125%, read-out: T/C × 100
  response vs control in vivo at 0.04 mg/kg: 162%
[1]; Mus musculus, P388, ip, 0.09 mg./kg. i.p., days 1, 5 and 9, efficacy ≥125%, read-out: T/C × 100
  response vs control in vivo at 0.09 mg/kg: 171%
[1]; Mus musculus, P388, ip, 0.39 mg./kg. i.p., days 1, 5 and 9, efficacy ≥125%, read-out: T/C × 100
  response vs control in vivo at 0.39 mg/kg: 186%
[1]; Mus musculus, P388, ip, 0.78 mg./kg. i.p., days 1, 5 and 9, efficacy ≥125%, read-out: T/C × 100
  response vs control in vivo at 0.78 mg/kg: 176%
[1]; Mus musculus, P388, ip, 1.5 mg./kg. i.p., days 1, 5 and 9, efficacy ≥125%, read-out: T/C × 100
  response vs control in vivo at 1.5 mg/kg: 214%
[1]; Mus musculus, P388, ip, 3.1 mg./kg. i.p., days 1, 5 and 9, efficacy ≥125%, read-out: T/C × 100
  response vs control in vivo at 3.1 mg/kg: 210%
[1]; Mus musculus, P388, ip, 6.2 mg./kg. i.p., days 1, 5 and 9, efficacy ≥125%, read-out: T/C × 100
  response vs control in vivo at 6.2 mg/kg: 190%
[1]; Mus musculus, P388, ip, 12.5 mg./kg. i.p., days 1, 5 and 9, efficacy ≥125%, read-out: T/C × 100
  response vs control in vivo at 12.5 mg/kg: 152%
[1]; [3]
  response vs control in vivo at 25 mg/kg: 86%

## CCN(CC)CCNc1ccc(NCCN(CC)CC)c2c1C(=O)c1c(O)ccc(O)c1C2=O [1,4-Bis[(2-diethylaminoethyl)amino]-5,8-dihydroxyanthraquinone]
Melanotic melanoma B16; [4]
  Median Survival Time: 20.5 days
Melanotic melanoma B16; [5]
  response vs control in vivo at 50 mg/kg: 125%
[1]; [6]
  Median Survival Time: 12.0 days
[1]; [2]
  Median Survival Time: 16.0 days
[1]; [7]
  Median Survival Time: 15.0 days
[1]; [8]
  Median Survival Time: 18.0 days
[1]; [9]
  Median Survival Time: 20.0 days
[1]; [10]
  response vs control in vivo at 12 mg/kg: 126%
[1]; [3]
  response vs control in vivo at 25 mg/kg: 168%
[1]; [11]
  response vs control in vivo at 50 mg/kg: 158%
[1]; [12]
  response vs control in vivo at 100 mg/kg: 189%
[1]; [13]
  response vs control in vivo at 200 mg/kg: 210%

## CN(C)CCCNc1ccc(NCCCN(C)C)c2c1C(=O)c1c(O)ccc(O)c1C2=O [1,4-Bis[(3-dimethylaminopropyl)amino]-5,8-dihydroxyanthraquinone]
Melanotic melanoma B16; [14]
  Median Survival Time: 20.0 days
Melanotic melanoma B16; [15]
  response vs control in vivo at 25 mg/kg: 125%
[1]; [6]
  Median Survival Time: 15.0 days
[1]; [2]
  Median Survival Time: 15.5 days
[1]; [7]
  Median Survival Time: 15.5 days
[1]; [10]
  response vs control in vivo at 12 mg/kg: 125%
[1]; [3]
  response vs control in vivo at 25 mg/kg: 129%
[1]; [11]
  response vs control in vivo at 50 mg/kg: 129%

## NCCNC1=C2C(=O)c3c(O)ccc(O)c3C(=O)C2=C(NCCN)CC1 [Leuco-1,4-bis(2-aminoethylamino)-5,8-dihydroxyanthraquinone]
Melanotic melanoma B16; [16]
  Median Survival Time: 32.0 days
Melanotic melanoma B16; Mus musculus, ip, read-out: T/C × 100
  response vs control in vivo at 12 mg/kg: 200%
[1]; [6]
  Median Survival Time: 18.0 days
[1]; [2]
  Median Survival Time: 19.0 days
[1]; [7]
  Median Survival Time: 23.0 days
[1]; [8]
  Median Survival Time: 19.0 days
[1]; [17]
  response vs control in vivo at 12 mg/kg: 150%
  response vs control in vivo at 100 mg/kg: 158%
[1]; [3]
  response vs control in vivo at 25 mg/kg: 158%
[1]; [11]
  response vs control in vivo at 50 mg/kg: 192%

## NCCCNC1=C2C(=O)c3c(O)ccc(O)c3C(=O)C2=C(NCCCN)CC1 [Leuco-1,4-bis(3-aminopropylamino)-5,8-dihydroxyanthraquinone]
Melanotic melanoma B16; 6 mg./kg. i.p., days 1 through 9
  Median Survival Time: 22.5 days
Melanotic melanoma B16; [16]
  Median Survival Time: 23.5 days
Melanotic melanoma B16; [14]
  Median Survival Time: 27.0 days
Melanotic melanoma B16; [4]
  Median Survival Time: 31.5 days
Melanotic melanoma B16; Mus musculus, ip, 6 mg./kg. i.p., days 1 through 9, efficacy ≥125%, read-out: T/C × 100
  response vs control in vivo at 6 mg/kg: 141%
Melanotic melanoma B16; [18]
  response vs control in vivo at 12 mg/kg: 147%
Melanotic melanoma B16; [15]
  response vs control in vivo at 25 mg/kg: 169%
Melanotic melanoma B16; [5]
  response vs control in vivo at 50 mg/kg: 197%
[1]; [6]
  Median Survival Time: 16.0 days
[1]; [2]
  Median Survival Time: 18.0 days
[1]; [7]
  Median Survival Time: 16.0 days
[1]; [8]
  Median Survival Time: 18.0 days
[1]; [9]
  Median Survival Time: 18.0 days
[1]; [10]
  response vs control in vivo at 12 mg/kg: 133%
[1]; [3]
  response vs control in vivo at 25 mg/kg: 150%
[1]; [11]
  response vs control in vivo at 50 mg/kg: 133%
[1]; [12]
  response vs control in vivo at 100 mg/kg: 150%
[1]; [13]
  response vs control in vivo at 200 mg/kg: 150%

## NCCCCNC1=C2C(=O)c3c(O)ccc(O)c3C(=O)C2=C(NCCCCN)CC1 [Leuco-1,4-bis(4-aminobutylamino)-5,8-dihydroxyanthraquinone]
Melanotic melanoma B16; [16]
  Median Survival Time: 16.0 days
Melanotic melanoma B16; [14]
  Median Survival Time: 18.5 days
Melanotic melanoma B16; [4]
  Median Survival Time: 20.0 days
Melanotic melanoma B16; 100 mg./kg. i.p., days 1 through 9
  Median Survival Time: 21.0 days
Melanotic melanoma B16; [18]
  response vs control in vivo at 12 mg/kg: 94%
Melanotic melanoma B16; [15]
  response vs control in vivo at 25 mg/kg: 109%
Melanotic melanoma B16; [5]
  response vs control in vivo at 50 mg/kg: 118%
Melanotic melanoma B16; Mus musculus, ip, 100 mg./kg. i.p., days 1 through 9, efficacy ≥125%, read-out: T/C × 100
  response vs control in vivo at 100 mg/kg: 124%
[1]; [8]
  Median Survival Time: 14.0 days
[1]; [9]
  Median Survival Time: 17.0 days
[1]; 300 mg./kg. i.p., days 1, 5 and 9
  Median Survival Time: 18.0 days
[1]; 400 mg./kg. i.p., days 1, 5 and 9
  Median Survival Time: 20.0 days
[1]; [12]
  response vs control in vivo at 100 mg/kg: 133%
[1]; [13]
  response vs control in vivo at 200 mg/kg: 162%
[1]; Mus musculus, P388, ip, 300 mg./kg. i.p., days 1, 5 and 9, efficacy ≥125%, read-out: T/C × 100
  response vs control in vivo at 300 mg/kg: 171%
[1]; Mus musculus, P388, ip, 400 mg./kg. i.p., days 1, 5 and 9, efficacy ≥125%, read-out: T/C × 100
  response vs control in vivo at 400 mg/kg: 190%

Reference: US4526989A, “1,4-Bis (substituted-amino)-5,8-dihydroxy-anthraquinones and leuco bases thereof” (priority 1979, dated 1985)
